Measurements reported in ChEMBL document CHEMBL1125844, “Novel non-nucleoside inhibitors of HIV-1 reverse transcriptase. 1. Tricyclic pyridobenzo- and dipyridodiazepinones” (J Med Chem, 1991).

How the values were obtained:
[1] = target: Human immunodeficiency virus type 1 reverse transcriptase (Human immunodeficiency virus 1, UniProt Q72547); test: In vitro inhibitory activity against human immunodeficiency virus type 1 (HIV-1) reverse transcriptase (RT)
[2] = target: Human immunodeficiency virus type 1 reverse transcriptase (Human immunodeficiency virus 1) (UniProt Q72547); test: In vitro inhibitory activity against human immunodeficiency virus type 1 (HIV-1) reverse transcriptase (RT) at a concentration of 10 ug/mL.

Row | SMILES | IC50 [1] [nM] | inhibition [2] [%]
1 | CCN1c2cc([N+](=O)[O-])ccc2N(C)C(=O)c2cccnc21 | 400 | 99
2 | CCN1c2ncccc2C(=O)N(C(C)=O)c2cccnc21 | 360 | 99
3 | C=CCN1C(=O)c2cccnc2Nc2ccc(Cl)cc21 | > 1000 | 79
4 | O=C1Nc2ccccc2Nc2ncccc21 | > 1000 | 22
5 | CCN1c2ccc([N+](=O)[O-])cc2N(C)C(=O)c2cc(Br)cnc21 | > 1000 | 64
6 | CCN1c2cc(Cl)c(Cl)cc2N(C)C(=O)c2cccnc21 | 62 | 100
7 | CCN1c2ccc(C(=O)OC)cc2N(C)C(=O)c2cccnc21 | 1100 | 94
8 | CCN1c2ncccc2C(=O)Nc2c(OC)ccnc21 | > 1000 | 96
9 | CN1C(=O)c2cccnc2N(C)c2ccccc21 | > 1000 | 85
10 | CCN1c2ccccc2N(C)C(=O)c2cccnc21 | 350 | 100
11 | CCCCN1c2ccccc2N(C)C(=O)c2cccnc21 | 1000 | 81
12 | CCN1C(=O)c2ccccc2N(CC)c2ncccc21 | 690 | 96
13 | CCN1c2ncccc2C(=O)N(C)c2cc(Cl)c(N)nc21 | 850 | 98
14 | CN1C(=O)c2cccnc2N(CCO)c2ccccc21 | > 1000 | 58
15 | Cc1ccnc2c1NC(=O)c1c(O)ccnc1N2C1CC1 | > 1000 | 96
16 | CCN(CC)C(=O)c1ccc2c(c1)N(C)C(=O)c1cccnc1N2CC | > 1000 | 11
17 | CC[C@H](C)N1c2ncccc2NC(=O)c2cccnc21 | > 1000 | 88
18 | CN1C(=O)c2cccnc2N(CCF)c2ncccc21 | 2900 | 96
19 | CCN1c2ccc(OC)cc2N(C)C(=O)c2cccnc21 | 2100 | 95
20 | CCN1c2ncccc2C(=O)Nc2c(Cl)ccnc21 | 95 | 100
21 | C=CCN1C(=O)c2cccnc2Nc2ccccc21 | 1400 | 96
22 | CCN1c2ncccc2C(=O)N(C)c2c(C)ccnc21 | 1900 | 98
23 | CCN1c2cccc(C)c2NC(=O)c2cccnc21 | 38 | 100
24 | C=CCN1C(=O)c2cccnc2N(C(C)=O)c2ccccc21 | > 1000 | 83
25 | CCN1c2ccc(Cl)cc2N(C)C(=O)c2cccnc21 | 170 | 99

Row | SMILES | IC50 [1] [nM] | inhibition [2] [%]
26 | CCN1c2ccccc2N(C)C(=O)c2cc(C(F)(F)C(F)(F)F)cnc21 | > 1000 | 5
27 | Cc1ccnc2c1NC(=O)c1cccnc1N2C1CC1 |  | 100
28 | CCN1c2ccc(C)cc2N(C)C(=O)c2cccnc21 | 190 | 100
29 | CN1C(=O)c2cccnc2N(CCF)c2ccccc21 | 1000 | 97
30 | CCN1c2ccccc2C(=O)N(C)c2ccccc21 | > 1000 | 80
31 | CCN1C(=O)c2cccc(C)c2N(CC)c2ncccc21 | 650 | 99
32 | CCN1c2ncccc2C(=O)Nc2c(O)ccnc21 | > 1000 | 94
33 | CCN1c2ccc(O)cc2N(C)C(=O)c2cccnc21 | > 1000 | 47
34 | N#Cc1ccnc2c1NC(=O)c1cccnc1N2C1CC1 | 1250 | 96
35 | O=C1Nc2cccnc2N(C2CCCC2)c2ncccc21 | > 1000 | 94
36 | CCN1c2ncccc2C(=O)N(C)c2cc(C)cnc21 | 760 | 100
37 | CCc1ccnc2c1NC(=O)c1cccnc1N2CC | 110 | 100
38 | CN1C(=O)c2cccnc2N(CC(=O)O)c2ccccc21 | > 1000 | 60
39 | C#CN1c2ccccc2N(C)C(=O)c2cccnc21 | 650 | 97
40 | CC(C)N1c2ncccc2NC(=O)c2cccnc21 | 590 | 99
41 | CC(C)(C)OC(=O)CN1C(=O)c2cccnc2Nc2ccccc21 | > 1000 | 39
42 | CCN1c2ncccc2C(=O)Nc2c(C)ccnc21 | 35 | 100
43 | C=CCN1C(=O)c2cccnc2N(C(=O)CC)c2ccccc21 | > 1000 | 72
44 | Cc1cc(C)c2c(n1)Nc1ccccc1C(=O)N2 | > 1000 | 51
45 | CCN1c2cccc(C)c2N(C)C(=O)c2cccnc21 | 240 | 100
46 | CCN1c2cc(N)ccc2N(C)C(=O)c2cccnc21 | 4500 | 89
47 | O=C1Nc2cccnc2N(C2CCC2)c2ncccc21 | 430 | 99
48 | CCN1c2ncc(Cl)cc2C(=O)N(C)c2cccnc21 | 3500 | 87
49 | O=C1Nc2cccnc2N(C2CC2)c2ncccc21 | 450 | 99
